In one assay the target is T1, ENPP3 (Homo sapiens, UniProt O14638).
T1 sequence (O14638 1-875): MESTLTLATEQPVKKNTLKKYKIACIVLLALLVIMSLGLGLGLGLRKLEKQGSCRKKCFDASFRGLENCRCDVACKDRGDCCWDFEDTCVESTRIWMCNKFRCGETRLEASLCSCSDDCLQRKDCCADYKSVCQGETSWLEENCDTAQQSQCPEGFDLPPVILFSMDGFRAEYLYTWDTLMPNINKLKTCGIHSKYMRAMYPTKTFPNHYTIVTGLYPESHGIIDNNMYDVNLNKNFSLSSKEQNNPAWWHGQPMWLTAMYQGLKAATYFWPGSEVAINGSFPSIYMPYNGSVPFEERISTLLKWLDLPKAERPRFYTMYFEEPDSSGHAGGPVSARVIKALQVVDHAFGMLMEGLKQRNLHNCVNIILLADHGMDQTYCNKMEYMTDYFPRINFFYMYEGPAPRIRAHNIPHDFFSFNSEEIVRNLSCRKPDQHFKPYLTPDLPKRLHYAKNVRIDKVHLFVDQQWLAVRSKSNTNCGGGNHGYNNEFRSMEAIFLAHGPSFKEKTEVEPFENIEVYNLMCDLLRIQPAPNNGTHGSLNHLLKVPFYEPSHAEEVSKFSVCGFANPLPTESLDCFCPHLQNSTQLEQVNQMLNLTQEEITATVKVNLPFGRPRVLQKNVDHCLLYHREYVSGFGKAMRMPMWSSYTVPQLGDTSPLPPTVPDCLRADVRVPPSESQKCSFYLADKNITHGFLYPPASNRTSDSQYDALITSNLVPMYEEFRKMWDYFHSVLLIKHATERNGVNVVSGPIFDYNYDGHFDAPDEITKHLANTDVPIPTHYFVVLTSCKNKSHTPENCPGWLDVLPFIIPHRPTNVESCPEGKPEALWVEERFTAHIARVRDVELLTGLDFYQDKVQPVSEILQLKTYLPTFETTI
Kind of assay: ENPP3 Km ATP assay. As to conditions: ATP at Km. In kind it is biochemical.

Another assay addresses T2, human ENPP1 (Homo sapiens, UniProt P22413).
T2 construct: made in house
T2 sequence (P22413 1-925): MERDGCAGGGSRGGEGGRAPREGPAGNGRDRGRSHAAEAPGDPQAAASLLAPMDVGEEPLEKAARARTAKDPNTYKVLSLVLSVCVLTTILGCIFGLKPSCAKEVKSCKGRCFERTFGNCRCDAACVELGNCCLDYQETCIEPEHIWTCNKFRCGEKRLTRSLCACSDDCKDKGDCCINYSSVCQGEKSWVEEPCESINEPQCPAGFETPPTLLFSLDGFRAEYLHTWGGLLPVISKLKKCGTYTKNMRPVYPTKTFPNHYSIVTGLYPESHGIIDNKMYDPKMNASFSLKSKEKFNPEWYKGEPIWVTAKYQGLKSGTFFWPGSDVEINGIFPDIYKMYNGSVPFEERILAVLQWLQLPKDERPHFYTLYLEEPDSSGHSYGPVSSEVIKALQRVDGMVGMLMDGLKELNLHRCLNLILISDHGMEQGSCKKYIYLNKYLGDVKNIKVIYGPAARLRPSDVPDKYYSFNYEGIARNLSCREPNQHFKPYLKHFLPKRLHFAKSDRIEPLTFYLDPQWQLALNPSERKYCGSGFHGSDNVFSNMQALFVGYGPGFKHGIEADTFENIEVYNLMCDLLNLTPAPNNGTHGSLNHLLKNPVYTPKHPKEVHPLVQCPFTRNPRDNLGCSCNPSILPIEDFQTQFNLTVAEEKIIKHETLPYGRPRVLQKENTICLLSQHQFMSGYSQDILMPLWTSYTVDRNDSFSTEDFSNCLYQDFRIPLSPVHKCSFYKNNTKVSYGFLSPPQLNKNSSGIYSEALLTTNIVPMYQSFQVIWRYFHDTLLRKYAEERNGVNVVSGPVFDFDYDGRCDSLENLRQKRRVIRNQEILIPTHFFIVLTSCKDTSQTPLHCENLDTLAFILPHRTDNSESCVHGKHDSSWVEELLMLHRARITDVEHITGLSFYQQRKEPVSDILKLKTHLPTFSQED
Kind of assay: ENPP1 assay with ATP substrate (Transcreener AMP2/GMP2 TR-FRET). Type of assay: biochemical. As to conditions: 1 hour at room temperature. In short, it runs like this: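 5′-AMP from ATP hydrolysis (300 nM ATP stock added; enzyme added as 8.5 μM stock) detected by competitive TR-FRET. Buffer: 50 mM Tris pH 7.5, 1 mM TCEP, 2 mM MgCl2, 0.005% Tween 20, 1% DMSO. Reaction 1 h at room temperature, EDTA stop. IC50 from 2-parameter variable-slope fit.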
(In TR-FRET formats the signal depends on donor and acceptor labels being close together.)

Broadly, the IC50 is the concentration that gives 50% inhibition. Higher therefore signals a need for much substance. In the case of `Cc1csc2c(N3CCC(NCCCc4ccnc(F)c4)CC3)ncnc12` [Example 3.37, N-(3-(2-Fluoropyridin-4-yl)propyl)-1-(7-methylthieno[3,2-d]pyrimidin-4-yl)piperidin-4-amine], the IC50 is more than 20 µM at ENPP3 and 0.1 to 1 µM against human ENPP1.

Take `Cc1ccc(CNc2nc(-c3ccccn3)nc3scc(-c4ccccc4)c23)o1` [Example 1.32, N-((5-methylfuran-2-yl)methyl)-5-phenyl-2-(pyridin-2-yl)thieno[2,3-d]pyrimidin-4-amine]: the 50% inhibitory concentration (IC50) against ENPP3 is more than 20 µM; on human ENPP1, 1 to 20 µM.

Consider `COc1cc(CNc2nc(-c3ccccn3)nc3scc(-c4ccccc4)c23)ccc1S(N)(=O)=O` [Example 1.16, 2-Methoxy-4-(((5-phenyl-2-(pyridin-2-yl)thieno[2,3-d]pyrimidin-4-yl)amino)methyl)benzenesulfonamide], for which the IC50 at ENPP3 was in the range of 1 to 20 µM; at human ENPP1, 0.1 to 1 µM.

As for `Cn1nc(Cl)c2c(NCc3ccc(S(N)(=O)=O)cc3)ncnc21` [Example 2.90, 4-((3-Chloro-1-methyl-1H-pyrazolo[3,4-d]pyrimidin-4-yl)aminomethyl)-benzenesulfonamide], the IC50 against ENPP3 and on human ENPP1 was 0.1 to 1 µM in each case.

Consider `CCc1nc(N2CCC(NCCCc3ccncc3)CC2)c2scc(C)c2n1` [Example 3.54, 1-(2-Ethyl-7-methylthieno[3,2-d]pyrimidin-4-yl)-N-(3-(pyridin-4-yl)propyl)piperidin-4-amine], for which the 50% inhibitory concentration (IC50) against ENPP3 and at human ENPP1 was more than 20 µM in each case.

Turning to `Cc1csc2c(N3CCC(NC(=O)Cc4ccc(F)cc4)CC3)ncnc12` [Example 3.43, 2-(4-Fluorophenyl)-N-(1-(7-methylthieno[3,2-d]pyrimidin-4-yl)piperidin-4-yl)acetamide], the IC50 at ENPP3 was more than 20 µM; against human ENPP1, 1 to 20 µM.

Turning to `Cc1csc2c(N3CCC(NCCCc4cccc(F)c4)CC3)ncnc12` [Example 3.41, N-(3-(3-Fluorophenyl)propyl)-1-(7-methylthieno[3,2-d]pyrimidin-4-yl)piperidin-4-amine], the results for the IC50 at ENPP3 and against human ENPP1 were more than 20 µM and 0.1 to 1 µM, respectively.

For `Cc1nc(NCc2ccc(S(N)(=O)=O)cc2)c2c(C3CCCC3)nn(C)c2n1` [Example 2.135, 4-((3-Cyclopentyl-1,6-dimethyl-1H-pyrazolo[3,4-d]pyrimidin-4-yl)aminomethyl)benzenesulfonamide], the IC50 against ENPP3 and against human ENPP1 was 1 to 20 µM in each case.

Consider `Cc1csc2c(N3CCC(NCCCc4ccc(Cl)cc4)CC3)ncnc12` [Example 3.28, N-(3-(4-Chlorophenyl)propyl)-1-(7-methylthieno[3,2-d]pyrimidin-4-yl)piperidin-4-amine], for which the IC50 at ENPP3 was more than 20 µM; at human ENPP1 it was less than 0.1 µM.

Take `Cn1ncc2c(N3CCC(NCCCc4ccncc4)CC3)nc(-c3ccccc3)nc21` [Example 2.7, 1-(1-Methyl-6-phenyl-1H-pyrazolo[3,4-d]pyrimidin-4-yl)-N-(3-(pyridin-4-yl)propyl)piperidin-4-amine]: the IC50 against ENPP3 and at human ENPP1 was more than 20 µM throughout.

Regarding `Cc1csc2c(N3CCC(NCCCc4ccncc4)CC3)nc(N3CCN(C)CC3)nc12` [Example 3.53, 1-(7-Methyl-2-(4-methylpiperazin-1-yl)thieno[3,2-d]pyrimidin-4-yl)-N-(3-(pyridin-4-yl)propyl)piperidin-4-amine], the concentration for half-maximal inhibition (IC50) against ENPP3 and at human ENPP1 was more than 20 µM throughout.

Take `Cn1ncc2c(NCc3ccc(S(N)(=O)=O)cc3)nc(Cl)nc21` [Example 2.92, 4-((6-Chloro-1-methyl-1H-pyrazolo[3,4-d]pyrimidin-4-yl)aminomethyl)-benzenesulfonamide]: the values for the IC50 at ENPP3 and against human ENPP1 were 0.1 to 1 µM and less than 0.1 µM, respectively.

Consider `CCn1ncc2c(NCc3ccc(S(N)(=O)=O)cc3)nc(Cl)nc21` [Example 2.83, 4-((6-Chloro-1-ethyl-1H-pyrazolo[3,4-d]pyrimidin-4-yl)aminomethyl)benzenesulfonamide], for which the IC50 was 1 to 20 µM on ENPP3 and less than 0.1 µM at human ENPP1.

Regarding `Cn1ncc2c(NCc3ccc(S(N)(=O)=O)s3)nc(-c3ccccn3)nc21` [Example 2.24, 5-(((1-Methyl-6-(pyridin-2-yl)-1H-pyrazolo[3,4-d]pyrimidin-4-yl)amino)methyl)thiophene-2-sulfonamide], the IC50 against ENPP3 and on human ENPP1 was 0.1 to 1 µM throughout.

With `CCNc1nc(NCc2ccc(S(N)(=O)=O)cn2)c2cnn(C)c2n1` [Example 2.139, 6-(((6-(Ethylamino)-1-methyl-1H-pyrazolo[3,4-d]pyrimidin-4-yl)amino)methyl)pyridine-3-sulfonamide], the half-inhibitory concentration (IC50) against ENPP3 and at human ENPP1 was 1 to 20 µM each time.

On to `CN(c1ccccc1)c1nc(NCc2ccc(S(N)(=O)=O)cc2)c2cnn(C)c2n1` [Example 2.36, 4-(((1-Methyl-6-(methyl(phenyl)amino)-1H-pyrazolo[3,4-d]pyrimidin-4-yl)amino)methyl)-benzenesulfonamide], for which the IC50 on ENPP3 is 0.1 to 1 µM; against human ENPP1, more than 20 µM.

As for `Cn1ncc2c(NCc3ccc(S(N)(=O)=O)cc3)nc(OCC(F)(F)F)nc21` [Example 2.99, 4-((6-(2,2,2-Trifluoroethoxy)-1-methyl-1H-pyrazolo[3,4-d]pyrimidin-4-yl)aminomethyl)-benzenesulfonamide], the IC50 at ENPP3 and on human ENPP1 was 0.1 to 1 µM throughout.

As for `Cn1ncc2c(NCc3ccc(S(N)(=O)=O)cc3)nc(Nc3ccccc3)nc21` [Example 2.50, 4-(((1-Methyl-6-(phenylamino)-1H-pyrazolo[3,4-d]pyrimidin-4-yl)amino)methyl)-benzenesulfonamide], the 50% inhibitory concentration (IC50) is 0.1 to 1 µM against ENPP3 and less than 0.1 µM against human ENPP1.

For `C=Cc1nc(NCc2ccc(S(N)(=O)=O)cc2)c2cnn(C)c2n1` [Example 2.39, 4-(((1-Methyl-6-vinyl-1H-pyrazolo[3,4-d]pyrimidin-4-yl)amino)methyl)benzenesulfonamide], the IC50 on ENPP3 and on human ENPP1 was less than 0.1 µM each time.

In the case of `Cc1csc2c(N3CCC(NCc4ccc(F)cc4)CC3)ncnc12` [Example 3.42, N-(4-Fluorobenzyl)-1-(7-methylthieno[3,2-d]pyrimidin-4-yl)piperidin-4-amine], the IC50 on ENPP3 is more than 20 µM; at human ENPP1 it was 1 to 20 µM.

`NS(=O)(=O)c1ccc(CNc2nc(NC3CC3)nc3scc(-c4ccccc4)c23)cc1` [Example 1.26, 4-(((2-(Cyclopropylamino)-5-phenylthieno[2,3-d]pyrimidin-4-yl)amino)methyl)-benzenesulfonamide]: the IC50 against ENPP3 and on human ENPP1 was less than 0.1 µM each time.

With `CCn1ncc2c(NCc3ccc(S(N)(=O)=O)cc3)ccnc21` [Example 2.122, 4-((1-Ethyl-1H-pyrazolo[3,4-b]pyridin-4-yl)aminomethyl)benzenesulfonamide], the results for the IC50 at ENPP3 and against human ENPP1 were 1 to 20 µM and less than 0.1 µM, respectively.

Turning to `CCNc1cc(NCc2ccc(S(N)(=O)=O)cc2F)c2cnn(C)c2n1` [Example 2.144, 4-(((6-(Ethylamino)-1-methyl-1H-pyrazolo[3,4-b]pyridin-4-yl)amino)methyl)-3-fluorobenzenesulfonamide], the IC50 on ENPP3 and on human ENPP1 was 0.1 to 1 µM each time.
